In US4375513A, “Biologically pure culture of Actinoplanes missouriensis” (Eli Lilly and Company, priority 1981, dated 1983):
Structures can show the parent of a compound that is named as a salt.

Tests used:
[1] = test system: Actinoplanes Strain ATCC 31680; test: antibiotic sensitivity of Actinoplanes strain ATCC 31680; type: cell-based, Actinoplanes missouriensis
Experimental: (§1) The methods used for the taxonomic studies of strains ATCC 31680, ATCC 31682, and ATCC 31683 are well known to those skilled in the art and in large part are methods recommended for the International Streptomyces Project (ISP), described by Shirling and Gottlieb, 1966, Intern. J. of Systematic Bacteriol. 16(3):313-340. Enzyme assays were carried out according to the methods of Blazevic and Ederer, 1975, Principles of Biochemical Tests in Diagnostic Microbiology, John Wiley and Sons. Inc., New York, and color names, abbreviations, and numbers were assigned using the ISCC-NBS method of Kelly and Judd, 1976, The ISCC-NBS Centroid Color Charts Standard Sample No. 2106, U.S. Dept. of Commerce, National Bureau of Standards, Washington D.C. Lysozyme resistance and the decomposition of casein, esculin, hypoxanthine, tyrosine, and xanthine were measured using the procedure of Berg, 1973, Appl. Microbiol. 25:665-681. Carbon utilization studies were also completed and are stored as follows: […]

[2] = test system: Actinoplanes Strain ATCC 31682; test: antibiotic sensitivity of Actinoplanes strain ATCC 31682; type: cell-based, Actinoplanes missouriensis
Experimental: as §1

[3] = test system: Actinoplanes Strain ATCC 31683; test: antibiotic sensitivity of Actinoplanes strain ATCC 31683; type: cell-based, Actinoplanes missouriensis
Experimental: as §1

[4] = bioautography of aglycone formation during hydrolysis; type: cell-based; conditions: during hydrolysis of A-4696 complex and individual factors
Description: An additional factor, designated as E1, can also be isolated from the antibiotic A-4696 complex and may represent a degradation product. The chemical, physical, and biological properties of the factors indicate that they are new antibiotics and, except possibly for factor E1, that they are composed of the same peptide core (aglycone) and amino sugar, and varying amounts of glucose, mannose, and rhamnose. […] It is possible that the site of antimicrobial activity of the A-4696 complex and individual factors resides in the peptide pseudo-aglycone, with the factors being substantially differentiated by differences in their neutral sugar composition. The attached sugars may function chiefly to modulate solubility and other important pharmacodynamic parameters.

Row | Structure (SMILES) | Antibiotic sensitivity ([1]; 30 μg.) | Antibiotic sensitivity ([2]; 30 μg.) | Antibiotic sensitivity ([3]; 30 μg.) | other results
1 | CN(C)C1C(=O)C(C(N)=O)=C(O)C2(O)C(=O)C3=C(O)c4c(O)cccc4C(C)(O)C3CC12 (stereo not shown) [Tetracycline] | Sensitive | Sensitive | Sensitive | 
2 | CO[C@H]1/C=C/O[C@@]2(C)Oc3c(C)c(O)c4c(O)c(c(/C=N/N5CCN(C)CC5)c(O)c4c3C2=O)NC(=O)/C(C)=C\C=C\[C@H](C)[C@H](O)[C@@H](C)[C@@H](O)[C@@H](C)[C@H](OC(C)=O)[C@@H]1C [Rifampin] |  |  |  | Antibiotic sensitivity ([1]; 5 μg.): Sensitive; Antibiotic sensitivity ([2]; 5 μg.): Sensitive; Antibiotic sensitivity ([3]; 5 μg.): Sensitive
3 | CO[C@@H]1[C@@H](OC(N)=O)[C@@H](O)[C@H](Oc2ccc3c(O)c(NC(=O)c4ccc(O)c(CC=C(C)C)c4)c(=O)oc3c2C)OC1(C)C [Novobiocin] | Sensitive | Sensitive | Sensitive | 
4 | O=C(N[C@H](CO)[C@H](O)c1ccc([N+](=O)[O-])cc1)C(Cl)Cl [Chloromycetin] | Sensitive | Sensitive | Sensitive | 
5 | CCC(=O)O[C@H]1[C@H](O[C@@H]2[C@@H](C)[C@H](O[C@H]3C[C@@](C)(OC)[C@@H](O)[C@H](C)O3)[C@@H](C)C(=O)O[C@H](CC)[C@@](C)(O)[C@H](O)[C@@H](C)C(=O)[C@H](C)C[C@@]2(C)O)O[C@H](C)C[C@@H]1N(C)C [Erythromycin (estolate)] |  |  |  | Antibiotic sensitivity ([1]; 15 μg.): Sensitive; Antibiotic sensitivity ([2]; 15 μg.): Sensitive; Antibiotic sensitivity ([3]; 15 μg.): Sensitive
6 | CC1(C)S[C@@H]2[C@H](NC(=O)Cc3ccccc3)C(=O)N2[C@H]1C(=O)O [Penicillin (G)] |  |  |  | Antibiotic sensitivity ([1]; 10 units): Sensitive; Antibiotic sensitivity ([2]; 10 units): Sensitive; Antibiotic sensitivity ([3]; 10 units): Sensitive
7 | [H]/N=C(/N)N[C@H]1[C@H](O)[C@@H](O)[C@H](O[C@@H]2O[C@@H](C)[C@](O)(C=O)[C@H]2O[C@@H]2O[C@@H](CO)[C@H](O)[C@@H](O)[C@@H]2NC)[C@@H](N/C(N)=N\[H])[C@@H]1O [Streptomycin] |  |  |  | Antibiotic sensitivity ([1]; 10 μg.): Sensitive; Antibiotic sensitivity ([2]; 10 μg.): Sensitive; Antibiotic sensitivity ([3]; 10 μg.): Sensitive
8 | COC(=O)C1NC(=O)C2NC(=O)C(NC(=O)C3NC(=O)C4NC(=O)C(Cc5ccc(cc5)Oc5cc3cc(c5O)Oc3ccc(cc3Cl)C2OC2CC(N)C(O)C(C)O2)NC(=O)C(N)c2ccc(O)c(c2)Oc2cc4cc(O)c2C)c2ccc(O)c(c2)-c2c(O)cc(O)cc21 (stereo not shown) [pseudo-aglycone] |  |  |  | antimicrobial activity (bioautography) [4]: antimicrobially active
9 | CN[C@H](CC(C)C)C(=O)N[C@H]1C(=O)N[C@@H](CC(N)=O)C(=O)N[C@H]2C(=O)N[C@H]3C(=O)N[C@H](C(=O)N[C@H](C(=O)O)c4cc(O)cc(O)c4-c4cc3ccc4O)[C@H](O)c3ccc(c(Cl)c3)Oc3cc2cc(c3O[C@@H]2O[C@H](CO)[C@@H](O)[C@H](O)[C@H]2O[C@H]2C[C@](C)(N)[C@H](O)[C@H](C)O2)Oc2ccc(cc2Cl)[C@H]1O [Vancomycin HCl] | Sensitive | Sensitive | Sensitive | 
10 | CC(=O)OCC1=C(C(=O)O)N2C(=O)[C@@H](NC(=O)Cc3cccs3)[C@H]2SC1 [Cephalothin (sodium)] | Sensitive | Sensitive | Sensitive | 
